Test results: patent publication US9783528B2, “Inhibitors of the enzyme UDP-glucose: N-acyl-sphingosine glucosyltransferase” (Concert Pharmaceuticals, Inc., priority 2013, dated 2017)
Read-outs that look alike come from different tables or passages of the source.

Assays:
CYP2D6 = target: T1, CYP2D6 (Homo sapiens, UniProt P10635); assay: Metabolic stability in Human CYP2D6 Supersomes; type: in vitro ADME; details: human, recombinant human CYP2D6 Supersomes
T1 construct: purchased Corning Gentest
T1 sequence (P10635 whole entry): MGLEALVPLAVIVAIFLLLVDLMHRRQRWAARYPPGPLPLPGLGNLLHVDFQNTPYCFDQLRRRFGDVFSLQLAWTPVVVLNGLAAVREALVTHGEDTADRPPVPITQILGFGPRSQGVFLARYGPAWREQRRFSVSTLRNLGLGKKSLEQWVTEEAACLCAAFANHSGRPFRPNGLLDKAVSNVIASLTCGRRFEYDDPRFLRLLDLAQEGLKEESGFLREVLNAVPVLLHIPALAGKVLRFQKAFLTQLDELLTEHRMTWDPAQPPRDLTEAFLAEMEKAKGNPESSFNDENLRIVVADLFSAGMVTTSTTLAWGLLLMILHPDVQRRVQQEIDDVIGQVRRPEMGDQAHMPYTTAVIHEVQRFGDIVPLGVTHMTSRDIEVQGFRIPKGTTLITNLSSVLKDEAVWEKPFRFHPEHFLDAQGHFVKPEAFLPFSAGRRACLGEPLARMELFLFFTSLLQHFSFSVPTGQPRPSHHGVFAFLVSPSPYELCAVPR
Method: (§1) Evaluation of Metabolic Stability in Human CYP2D6 Supersomes™
(§2) Materials: CYP2D6 Supersomes™ were obtained from Corning Gentest. β-nicotinamide adenine dinucleotide phosphate, reduced form (NADPH), magnesium chloride (MgCl2), and dimethyl sulfoxide (DMSO) were purchased from Sigma-Aldrich. D-Eliglustat compounds were supplied by Concert Pharmaceuticals.
(§3) Determination of Metabolic Stability: 10 mM stock solutions of test compounds were prepared in DMSO. […] The CYP2D6 supersomes were diluted to 5 pmol/mL in 0.1 M potassium phosphate buffer, pH 7.4, containing 3 mM MgCl2. The diluted supersomes were added to wells of a 96-well deep-well polypropylene plate in triplicate. […] Reactions were initiated by addition of pre-warmed NADPH solution. The final reaction volume was 0.5 mL and contained 5 pmol/mL CYP2D6 supersomes, 0.25 μM test compound, and 2 mM NADPH in 0.1 M potassium phosphate buffer, pH 7.4, and 3 mM MgCl2. The reaction mixtures were incubated at 37° C. and 50 μL aliquots were removed at 0, 5, 10, 20, and 30 minutes and added to shallow-well 96-well plates which contained 50 μL of ice-cold ACN with internal standard to stop the reactions. The plates were stored at 4° C. for 20 minutes after which 100 μL of water was added to the wells of the plate before centrifugation to pellet precipitated proteins. Supernatants were transferred to another 96-well plate and analyzed for amounts of parent remaining by LC-MS/MS using an Applied Bio-systems mass spectrometer.
(§4) Data analysis: The in vitro t1/2s for test compounds were calculated from the slopes of the linear regression of % parent remaining (ln) vs incubation time relationship.
(§5) k=−[slope of linear regression of % parent remaining (ln) vs incubation time]
(§6) Data analysis was performed using Microsoft Excel Software.

Human CYP2D6 Supersomes = target: T2, Human CYP2D6 Supersomes (Homo sapiens, UniProt P10635); assay: Metabolic stability in Human CYP2D6 Supersomes; type: in vitro ADME; details: Table 4a; for t1/2 (minutes) Experiment 2 / t1/2 (minutes) Experiment 1: 5 pmol/mL CYP2D6 supersomes, 0.25 μM test compound, 2 mM NADPH, 37° C.; for t1/2 (minutes) Experiment 1: parent remaining by LC-MS/MS; for t1/2 (minutes) Ave ± SD: average of Experiments 1 and 2
T2 construct: purchased Corning Gentest
T2 sequence (P10635 whole entry): as above
Method: as §1, §2, §3, §4, §5, §6

| Molecule | half-life at 0.25 μM (CYP2D6; pH 7.4, Table 4a, 5 pmol/mL CYP2D6 supersomes, 0.25 μM test compound, 2 mM NADPH, 37° C., parent remaining by LC-MS/MS, read-out: t1/2 (minutes) Experiment 1) | half-life at 0.25 μM (CYP2D6; pH 7.4, Table 4a, 5 pmol/mL CYP2D6 supersomes, 0.25 μM test compound, 2 mM NADPH, 37° C., read-out: t1/2 (minutes) Experiment 2) | half-life at 0.25 μM (CYP2D6; pH 7.4, Table 4a, average of Experiments 1 and 2, read-out: t1/2 (minutes) Ave ± SD) | half-life at 0.25 μM (CYP2D6; pH 7.4, Table 4b, Human CYP2D6 Supersomes, read-out: t1/2 (minutes) Experiment 1) | half-life at 0.25 μM (CYP2D6; pH 7.4, Table 4b, Human CYP2D6 Supersomes, read-out: t1/2 (minutes) Experiment 2) | half-life at 0.25 μM (CYP2D6; pH 7.4, Table 4b, average of Experiments 1 and 2, read-out: t1/2 (minutes) Ave ± SD) | t1/2 (minutes) Experiment 2 (Human CYP2D6 Supersomes) | t1/2 (minutes) Experiment 1 (Human CYP2D6 Supersomes) | t1/2 (minutes) Ave ± SD (Human CYP2D6 Supersomes) | % Δ of t1/2 = [(deuterated species) − (nondeuterated species)](100)/(nondeuterated species) (Human CYP2D6 Supersomes; versus Eliglustat (D0)) |
| --- | --- | --- | --- | --- | --- | --- | --- | --- | --- | --- |
| CCCCCCCC(=O)N[C@H](CN1CCCC1)[C@H](O)c1ccc2c(c1)OCCO2 [Eliglustat (D0), N-[2-(2,3-dihydro-1,4-benzodioxin-6-yl)-2(R)-hydroxy-1(R)-(pyrrolidin-1-ylmethyl)ethyl]octanamide, reference compound] | 6.6 min | 5.1 min | 6.7 ± 1.5 min | 9.7 min | 6.3 min | 8 ± 2.4 min | – | – | – | – |
| N-((1R,2R)-1-(2,3-dihydrobenzo[b][1,4]dioxin-6-yl)-1-hydroxy-3-(pyrrolidin-2-yl-3,3-d2)octan-d15-amide hemi-L-tartaric acid salt [Compound 171] | – | – | – | – | – | – | 17.1 min | 12.3 min | 14.7 ± 3.4 min | 119% |
| N-((1R,2R)-1-(2,3-Dihydrobenzo[b][1,4]dioxin-6-yl-2,2,3,3-d4)-1-hydroxy-3-(pyrrolidin-1-yl-d8)propan-2-yl)octanamide hemi-L-tartaric acid salt [Compound 118] | – | – | – | – | – | – | 5.9 min | 5.6 min | 5.8 ± 0.2 min | – |
